Series [1] deals with T1, VT2 (Escherichia coli, UniProt Q07871). The series is classed as binding, E. coli.
Series [2] addresses verocytotoxin 1 (Bacteriophage H30, UniProt P69178).
For series [3], the target named is VT1 toxin (Bacteriophage H30, UniProt P69178).
Series [4] concerns the target T1, VT2. The series is classed as cell-based, E. coli.
Series [5] has as its target T2, Shiga toxin (Shigella dysenteriae, UniProt Q7BQ98). Conditions: cited from earlier work.
In series [6] the target is T2, Shiga toxin. Conditions: cited from earlier work. This is another data set of the same source.
[7] abbreviates: natural verocytotoxin, glycolipid dotted at 0.01-50 nmol.
The mark [8] stands for this setting: purified natural VT1, tlc or dot blot, antiverocytotoxin and immunoperoxidase conjugate.

Entries after “also recorded” stand apart in the source; their conditions may differ. Like-named read-outs stand apart in the source and are kept apart here.

T2 sequence (Q7BQ98 whole entry, looked up): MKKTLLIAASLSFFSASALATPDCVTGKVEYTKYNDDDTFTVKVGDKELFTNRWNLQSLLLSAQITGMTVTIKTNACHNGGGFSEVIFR
Sequence of verocytotoxin 1 (P69178 whole entry, looked up): as the sequence (Q7BQ98 whole entry, looked up) above
Sequence of VT1 toxin (P69178 whole entry, looked up): as the sequence (Q7BQ98 whole entry, looked up) above

Take `CCCCCCCCCCCCCC=CC(O)C(CO[C@@H]1O[C@H](CO)[C@@H](O[C@@H]2O[C@H](CO)[C@H](O)[C@H](O)[C@H]2O)[C@H](O)[C@H]1O)NC(=O)CCCCCCCCCCCCCCC` (stereo partly drawn) [LacCer, lactosyl ceramide]: the “VT2 binding to glycolipid” value in series [1] is reported as “no binding”. Moreover, in series [2] (setting [7]), the “verocytotoxin binding above background (125I-Protein A binding curves)” value (shortened to “verocytotoxin binding above background”) is reported as “No binding above background”. Also, the “verocytotoxin binding to glycolipid” value in series [2] (setting [8]) is “No binding”.

Regarding `CCCCCCCCCCCCC/C=C/[C@@H](O)[C@@H](N)CO[C@@H]1O[C@H](CO)[C@@H](O[C@@H]2O[C@H](CO)[C@H](O[C@H]3O[C@H](CO)[C@H](O)[C@H](O)[C@H]3O)[C@H](O)[C@H]2O)[C@H](O)[C@H]1O` [deacylated globotriosyl ceramide], in series [3], the “amount of purified toxin the assay can detect” value is reported as “less than 5 pg” and the “effect of deacylation on verocytotoxin binding” value is recorded as “does not inhibit verocytotoxin binding”.

As to `CCCCCCCCCCCCCC=CC(O)C(COC1OC(CO)C(OC2OC(CO)C(OC3OC(CO)C(O)C(OC4OC(CO)C(O)C(O)C4NC(C)=O)C3O)C(O)C2O)C(O)C1O)NC(=O)CCCCCCCCCCCCCCC` (stereo not drawn) [GbOse4 cer, globotetraosyl ceramide], the “VT2 binding by liposomal adsorption” value in series [4] was “at least minimal”. In addition, the “VT2 binding to glycolipid” value in series [1] is “no binding; also recorded: does not bind”. Moreover, in series [5], the “Shiga toxin binding to glycolipid” value is given as “residual binding”. Further, the “verocytotoxin binding above background” value in series [2] (setting [7]) was “No binding above background”. For the same compound, the “verocytotoxin binding to glycolipid” value in series [2] (setting [8]) is on record as “No binding”.

`N[C@H]1[C@H](O[C@H]2[C@H](O)[C@@H](N)[C@H](O[C@H]3[C@H](O)[C@@H](N)C(O)O[C@@H]3CO)O[C@@H]2CO)O[C@H](CO)[C@@H](O)[C@@H]1O` (stereo partly drawn) [chiotriose]: the “protection against Shiga toxin cytotoxicity” value in series [6] was “protects against cytotoxicity”. Also, the “effect on Shiga toxin Gb0se3 cer binding” value in series [5] was “little effect”.

As for digalactosyl diglyceride [DGDG], the “VT2 binding to glycolipid” value in series [1] is reported as “loss of VT2 binding; also recorded: do not bind”. For the same compound, in series [2], the “verocytotoxin binding above background” value is “No binding above background” and the “verocytotoxin binding to glycolipid” value is listed as “unreactive with the toxin”.

As to `CCCCCCCCCCCCCC=CC(O)C(CO[C@@H]1O[C@H](CO)[C@H](O[C@H]2O[C@H](CO)[C@H](O)[C@H](O)[C@H]2O)[C@H](O)[C@H]1O)NC(=O)CCCCCCCCCCCCCCC` (stereo partly drawn) [galabiosyl ceramide], in series [1], the “VT2 binding after digestion with αgalactosidase” value is recorded as “binding is removed” and the “VT2 binding to glycolipid” value is reported as “binds”. In addition, in series [2] (glycolipids contained in Daudi cells), the “VT1 binding to Daudi cell glycolipids” value is listed as “VT1-binding”.

(Values after patent US5164298A (priority 1988, dated 1992).)
